One compound from patent publication US8791163B2 (McGill University, priority 2006, dated 2014) can be followed below.

Experiment [1] concerns the target T1, cloned human MT2 receptors (Homo sapiens, UniProt P49286).
T1 construct: expressed in transfected cells
T1 sequence (P49286 1-362): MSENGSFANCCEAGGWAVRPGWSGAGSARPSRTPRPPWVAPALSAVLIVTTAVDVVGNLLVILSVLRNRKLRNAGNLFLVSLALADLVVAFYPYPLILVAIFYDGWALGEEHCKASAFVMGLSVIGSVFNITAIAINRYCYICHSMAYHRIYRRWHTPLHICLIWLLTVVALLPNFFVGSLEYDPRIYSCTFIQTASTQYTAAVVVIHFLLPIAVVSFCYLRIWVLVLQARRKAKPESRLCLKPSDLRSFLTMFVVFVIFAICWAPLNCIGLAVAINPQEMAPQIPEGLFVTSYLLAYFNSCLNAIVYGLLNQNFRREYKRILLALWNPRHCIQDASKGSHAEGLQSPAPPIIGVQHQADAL
As to the kind of experiment: [35S]GTPγS binding assay, NIH3T3 cells expressing human MT2. In kind it is biochemical. Conditions: maximal net effect relative to MLT.

For experiment [2], the system named is Male Sprague-Dawley rats. As to the kind of experiment: Forced Swimming Test (FST). Format: in vivo, rat. Conditions: 5b 40 mg/kg i.p. 24, 5 and 1 hour prior to the test; vs vehicle. The text has this:
The forced swimming test (FST), Open field Test (OFT) and the in vivo electrophysiology recording were employed to evaluate the anti-depressant activity, the anti-anxiety activity and the sleep promoting properties of the compounds of the present invention [compounds of Formula (I)]. The following results were obtained using compound 5b. Male Sprague-Dawley rats (225-275 g, Charles-River Saint-Constant, Quebec, Canada) were used. The animals were housed at constant room temperature and humidity under a 12 h light/dark cycle. Food and water were available ad libitum. All procedures were approved by local institutional care and use committees and followed the guidelines released by the Canadian Institutes of Health Research.
The FST is typically a two-day procedure in which rats are immersed in a water containing cylinder (18 cm in diameter; 40 cm high; water 30 cm deep, 25-27° C.) from which they cannot escape. On the first day, the rats are forced to remain in the water bath for 15 minutes (pre-test). During this time, the rats usually struggle to escape, but eventually adopt a posture of immobility in which they emit only the minimal movements necessary to keep their heads above water. The actual test (5 min) occurs 24 h later. When re-immersed in the water, immobility is increased; antidepressant treatments reliably reduce immobility during the test. The FST is both sensitive and selective for clinically effective antidepressants, has been repeatedly validated and is currently the most popular model for detecting antidepressant activity due to its ease of use, reliability and extremely high predictive validity (Lucki, I. (1997) Behav. Pharmacol. 8(6-7): 523-32).
At the end of the pre-test, the rats are removed from the water bath, dried with towels and placed in a warm enclosure for 15 min. The rats are then returned to their respective home cages. […] Behavior is recorded continuously throughout the 5 min test by a video camera positioned directly above the water cylinder. […] The total time for each type of behavior represents the times that a specified behavior is detected. […]

“And” between values parts separate entries of the source, which are not always exact repeats. Identical values can stand only once.

For `COc1cccc(N(CCNC(C)=O)c2ccccc2)c1` [5b, N-{2-[(3-Methoxyphenyl)-phenylamino]ethyl}acetamide], the “MT2 IAr ± SEM (relative intrinsic activity)” value in experiment [1] is 0.6 and 0.61 ± 0.04. Moreover, in experiment [2], the immobility entry is recorded as “significantly decreased”, the “tendency to climb or burst” value was “increased the tendency to climb or burst” and the tendency to swim entry is “increased the tendency to swim”.
